Experimental data: article PMC5218480 (PLoS ONE, 2017)

Tested on: MV-4-11 cells
Assay: Gene expression microarray analysis (Affymetrix PrimeView) and GSEA
Type: cell-based, human
Design: RFU PODN (11730768_x_at) / Fold change /veh PODN (11730768_x_at) / RFU LINC00158 (11744669_a_at) / Fold change /veh LINC00158 (11744669_a_at) / RFU DUSP10 (11751237_a_at) / Fold change /veh DUSP10 (11751237_a_at) / RFU ID3 (11757404_x_at) / Fold change /veh ID3 (11757404_x_at) / RFU PLEKHG5 (11737974_s_at) / Fold change /veh PLEKHG5 (11737974_s_at) / RFU LRRC4B (11730491_at) / Fold change /veh LRRC4B (11730491_at) / RFU GIMAP4 (11747438_a_at) / Fold change /veh GIMAP4 (11747438_a_at) / RFU KRT8 (11758183_x_at) / Fold change /veh KRT8 (11758183_x_at) / RFU CNN1 (11734310_a_at) / Fold change /veh CNN1 (11734310_a_at) / RFU VPS37D (11726825_at) / Fold change /veh VPS37D (11726825_at) / RFU C10orf10 (11716522_x_at) / Fold change /veh C10orf10 (11716522_x_at) / RFU KIR2DL2 /// KIR2DL4 /// KIR2DL5A /// KIR2DL5B /// KIR2DS1 /// KIR2DS2 /// KIR2DS3 /// KIR2DS4 /// KIR3DL3 /// KIR3DL3 /// KIR3DS1 (11738374_at) / Fold change /veh KIR2DL2 /// KIR2DL4 /// KIR2DL5A /// KIR2DL5B /// KIR2DS1 /// KIR2DS2 /// KIR2DS3 /// KIR2DS4 /// KIR3DL3 /// KIR3DL3 /// KIR3DS1 (11738374_at) / RFU C1QL1 (11718748_at) / Fold change /veh C1QL1 (11718748_at) / RFU TMPRSS4 (11747572_a_at) / Fold change /veh TMPRSS4 (11747572_a_at) / RFU HAMP (11756126_x_at) / Fold change /veh HAMP (11756126_x_at) / RFU RNFT2 (11725882_a_at) / Fold change /veh RNFT2 (11725882_a_at) / RFU NR4A2 (11747474_a_at) / Fold change /veh NR4A2 (11747474_a_at) / RFU ABCC12 (11746883_a_at) / Fold change /veh ABCC12 (11746883_a_at) / RFU TMEM136 (11760407_x_at) / Fold change /veh TMEM136 (11760407_x_at) / RFU CLDN22 /// WWC2 (11732394_at) / Fold change /veh CLDN22 /// WWC2 (11732394_at) / RFU HLA-DPB1 (11760878_x_at) / Fold change /veh HLA-DPB1 (11760878_x_at) / RFU SPINT1 (11716480_a_at) / Fold change /veh SPINT1 (11716480_a_at) / RFU GAP43 (11754022_s_at) / Fold change /veh GAP43 (11754022_s_at) / RFU A4GNT (11735810_at) / Fold change /veh A4GNT (11735810_at) / RFU PRB3 (11715151_x_at) / Fold change /veh PRB3 (11715151_x_at) / RFU TUBB4B (11761932_at) / Fold change /veh TUBB4B (11761932_at) / RFU CAPN14 (11732068_a_at) / Fold change /veh CAPN14 (11732068_a_at) / RFU TMCC2 (11721928_a_at) / Fold change /veh TMCC2 (11721928_a_at) / RFU IRGQ (11745062_a_at) / Fold change /veh IRGQ (11745062_a_at) / RFU FAM174B (11720279_a_at) / Fold change /veh FAM174B (11720279_a_at) / RFU TMPRSS4 (11748680_a_at) / Fold change /veh TMPRSS4 (11748680_a_at) / RFU FAM212B (11763350_a_at) / Fold change /veh FAM212B (11763350_a_at) / RFU PLEKHG5 (11743358_a_at) / Fold change /veh PLEKHG5 (11743358_a_at) / RFU ZSCAN30 (11745921_a_at) / Fold change /veh ZSCAN30 (11745921_a_at) / RFU CMKLR1 (11741424_a_at) / Fold change /veh CMKLR1 (11741424_a_at) / RFU LOC101060620 /// MAPK8IP1 (11723275_at) / Fold change /veh LOC101060620 /// MAPK8IP1 (11723275_at) / RFU SPTSSB (11747773_x_at) / Fold change /veh SPTSSB (11747773_x_at) / RFU PRSS12 (11739890_at) / Fold change /veh PRSS12 (11739890_at) / RFU BIN1 (11741810_x_at) / Fold change /veh BIN1 (11741810_x_at) / RFU WNT11 (11732464_a_at) / Fold change /veh WNT11 (11732464_a_at) / RFU C10orf10 (11716521_a_at) / Fold change /veh C10orf10 (11716521_a_at) / RFU C5orf56 (11738089_at) / Fold change /veh C5orf56 (11738089_at) / RFU CYB561 (11721691_x_at) / Fold change /veh CYB561 (11721691_x_at) / RFU ANKRD19P (11752326_a_at) / Fold change /veh ANKRD19P (11752326_a_at) / RFU OR2T12 /// OR2T33 /// OR2T8 (11738714_s_at) / Fold change /veh OR2T12 /// OR2T33 /// OR2T8 (11738714_s_at) / RFU VCAN (11748164_a_at) / Fold change /veh VCAN (11748164_a_at) / RFU JSRP1 (11732532_at) / Fold change /veh JSRP1 (11732532_at) / RFU KRTAP10-11 (11738290_x_at) / Fold change /veh KRTAP10-11 (11738290_x_at) / RFU MYO3A (11730013_a_at) / Fold change /veh MYO3A (11730013_a_at) / RFU EBF3 (11725865_a_at) / Fold change /veh EBF3 (11725865_a_at) / RFU CAMK2N1 (11719241_x_at) / Fold change /veh CAMK2N1 (11719241_x_at) / RFU C5orf56 (11738088_a_at) / Fold change /veh C5orf56 (11738088_a_at) / RFU OLFML3 (11715873_a_at) / Fold change /veh OLFML3 (11715873_a_at) / RFU LOC100653217 /// NTM (11731650_a_at) / Fold change /veh LOC100653217 /// NTM (11731650_a_at) / RFU MAPK11 (11762145_a_at) / Fold change /veh MAPK11 (11762145_a_at) / RFU FIZ1 (11724087_x_at) / Fold change /veh FIZ1 (11724087_x_at) / RFU OASL (11726364_x_at) / Fold change /veh OASL (11726364_x_at) / RFU SOX15 (11748057_x_at) / Fold change /veh SOX15 (11748057_x_at) / RFU CD79A (11719716_a_at) / Fold change /veh CD79A (11719716_a_at) / RFU HIST1H1D (11736915_at) / Fold change /veh HIST1H1D (11736915_at) / RFU CASKIN2 (11723855_a_at) / Fold change /veh CASKIN2 (11723855_a_at) / RFU LOC730098 (11760151_x_at) / Fold change /veh LOC730098 (11760151_x_at) / RFU OR4N2 (11742367_at) / Fold change /veh OR4N2 (11742367_at) / RFU PRRT2 (11749266_a_at) / Fold change /veh PRRT2 (11749266_a_at) / RFU SNX32 (11753110_a_at) / Fold change /veh SNX32 (11753110_a_at) / RFU CDHR5 (11726645_a_at) / Fold change /veh CDHR5 (11726645_a_at) / RFU RCAN1 (11760418_a_at) / Fold change /veh RCAN1 (11760418_a_at) / RFU FAM167A (11723789_a_at) / Fold change /veh FAM167A (11723789_a_at) / RFU FAM26E (11764081_at) / Fold change /veh FAM26E (11764081_at) / RFU ISYNA1 (11749810_s_at) / Fold change /veh ISYNA1 (11749810_s_at) / RFU ACY1 (11761880_at) / Fold change /veh ACY1 (11761880_at) / RFU 11764098_at / Fold change /veh 11764098_at / RFU SAMD14 (11745864_x_at) / Fold change /veh SAMD14 (11745864_x_at) / RFU NPB (11741838_a_at) / Fold change /veh NPB (11741838_a_at) / RFU TMPRSS6 (11731388_a_at) / Fold change /veh TMPRSS6 (11731388_a_at) / RFU KRTAP10-2 (11738614_at) / Fold change /veh KRTAP10-2 (11738614_at) / RFU ARHGAP8 /// PRR5-ARHGAP8 (11727945_x_at) / Fold change /veh ARHGAP8 /// PRR5-ARHGAP8 (11727945_x_at) / RFU KRTAP5-7 /// NADSYN1 (11734609_at) / Fold change /veh KRTAP5-7 /// NADSYN1 (11734609_at) / RFU RASL12 (11751679_a_at) / Fold change /veh RASL12 (11751679_a_at) / RFU CDKN2B (11736163_a_at) / Fold change /veh CDKN2B (11736163_a_at) / RFU PRF1 (11729649_at) / Fold change /veh PRF1 (11729649_at) / RFU, ZNF638 /// ZNF638-IT1 / Fold change vs veh, ZNF638 /// ZNF638-IT1 / RFU, PANK3 / Fold change vs veh, PANK3 / RFU, SH3YL1 / Fold change vs veh, SH3YL1 / RFU, ZEB2 / Fold change vs veh, ZEB2 / RFU, NRIP1 / Fold change vs veh, NRIP1 / RFU, PTTG1IP / Fold change vs veh, PTTG1IP / RFU, CAPN2 / Fold change vs veh, CAPN2 / RFU, MED14 / Fold change vs veh, MED14 / RFU, SNORA58 / Fold change vs veh, SNORA58 / RFU, C1orf63 / Fold change vs veh, C1orf63 / RFU, LRRFIP1 / Fold change vs veh, LRRFIP1 / RFU, NDUFAF7 / Fold change vs veh, NDUFAF7 / RFU, SLC12A2 / Fold change vs veh, SLC12A2 / RFU, IBTK / Fold change vs veh, IBTK / RFU, ESF1 / Fold change vs veh, ESF1 / Fold change vs veh, TMEM50B / RFU, TAOK1 / Fold change vs veh, TAOK1 / RFU, ACBD3 / Fold change vs veh, ACBD3 / RFU, TMA16 / Fold change vs veh, TMA16 / RFU, RWDD3 / Fold change vs veh, RWDD3 / RFU, BCAT1 / Fold change vs veh, BCAT1 / RFU, EDEM3 / Fold change vs veh, EDEM3 / RFU, TMEM33 / Fold change vs veh, TMEM33 / RFU, WDR75 / Fold change vs veh, WDR75 / RFU, AHCTF1 / Fold change vs veh, AHCTF1 / RFU, TFRC / Fold change vs veh, TFRC / RFU, ZDHHC17 / Fold change vs veh, ZDHHC17 / RFU, NOM1 / Fold change vs veh, NOM1 / RFU, ARL8B / Fold change vs veh, ARL8B / RFU, ZBTB11 / Fold change vs veh, ZBTB11 / RFU, TAMM41 / Fold change vs veh, TAMM41 / RFU, KIAA1704 /// LOC100996395 / Fold change vs veh, KIAA1704 /// LOC100996395 / RFU, ING1 / Fold change vs veh, ING1 / RFU, TRMT61B / Fold change vs veh, TRMT61B / RFU, FUBP3 / Fold change vs veh, FUBP3 / RFU, TP53 / Fold change vs veh, TP53 / RFU, TNKS2 / Fold change vs veh, TNKS2 / RFU, ZFP14 / Fold change vs veh, ZFP14 / RFU, ACTR2 / Fold change vs veh, ACTR2 / RFU, PPP3R1 / Fold change vs veh, PPP3R1 / RFU, PIK3R1 / Fold change vs veh, PIK3R1 / RFU, HNRNPA1 / Fold change vs veh, HNRNPA1 / RFU, RNF170 / Fold change vs veh, RNF170 / RFU, ZNF28 / Fold change vs veh, ZNF28 / RFU, RNGTT / Fold change vs veh, RNGTT / RFU, OGT / Fold change vs veh, OGT / RFU, BRD1 / Fold change vs veh, BRD1 / RFU, MARS / Fold change vs veh, MARS / RFU, ZNF655 / Fold change vs veh, ZNF655 / RFU, FAHD1 / Fold change vs veh, FAHD1 / RFU, BDP1 / Fold change vs veh, BDP1 / RFU, LRRCC1 / Fold change vs veh, LRRCC1 / RFU, ARID1A / Fold change vs veh, ARID1A / RFU, ZNF146 / Fold change vs veh, ZNF146 / RFU, ZNF330 / Fold change vs veh, ZNF330 / RFU, GPN3 / Fold change vs veh, GPN3 / RFU, C9orf123 / Fold change vs veh, C9orf123 / RFU, N4BP2L2 / Fold change vs veh, N4BP2L2 / RFU, ARFIP1 / Fold change vs veh, ARFIP1 / RFU, FAM179B / Fold change vs veh, FAM179B / RFU, BCL10 / Fold change vs veh, BCL10 / RFU, UHRF1BP1L / Fold change vs veh, UHRF1BP1L / RFU, BET1 / Fold change vs veh, BET1 / RFU, CNOT2 / Fold change vs veh, CNOT2 / RFU, ZNF268 / Fold change vs veh, ZNF268 / Fold change vs veh, ZNF507 / RFU, DGCR2 / Fold change vs veh, DGCR2 / RFU, WDSUB1 / Fold change vs veh, WDSUB1 / Fold change vs veh, HSP90B1 /// MIR3652 / RFU, ADSS / Fold change vs veh, ADSS / RFU, GK / Fold change vs veh, GK / RFU, ZNF148 / Fold change vs veh, ZNF148 / RFU, TAF9 / Fold change vs veh, TAF9 / RFU, SLC1A5 / Fold change vs veh, SLC1A5 / RFU, SLMO2 / Fold change vs veh, SLMO2 / RFU, ABCC4 / Fold change vs veh, ABCC4 / RFU, LOC101060439 /// RAP1B / Fold change vs veh, LOC101060439 /// RAP1B / RFU, RFX7 / Fold change vs veh, RFX7 / RFU, GTPBP10 / Fold change vs veh, GTPBP10 / RFU, CNEP1R1 / Fold change vs veh, CNEP1R1 / RFU, BIVM-ERCC5 /// ERCC5 / Fold change vs veh, BIVM-ERCC5 /// ERCC5 / RFU, ILF3 / Fold change vs veh, ILF3 / RFU 11762660_at / Fold change /veh 11762660_at / RFU VCAN (11757783_s_at) / Fold change /veh VCAN (11757783_s_at) / RFU DDX43 (11728927_at) / Fold change /veh DDX43 (11728927_at) / RFU KRT8 (11758188_x_at) / Fold change /veh KRT8 (11758188_x_at) / RFU NKD1 (11759106_at) / Fold change /veh NKD1 (11759106_at) / RFU SRD5A1 (11742802_a_at) / Fold change /veh SRD5A1 (11742802_a_at) / RFU TPSAB1 /// TPSB2 (11721975_s_at) / Fold change /veh TPSAB1 /// TPSB2 (11721975_s_at) / RFU GSTM3 (11746129_a_at) / Fold change /veh GSTM3 (11746129_a_at) / RFU IL23R (11737362_x_at) / Fold change /veh IL23R (11737362_x_at) / RFU TMEM51 (11727254_a_at) / Fold change /veh TMEM51 (11727254_a_at) / RFU PIWIL2 (11732686_x_at) / Fold change /veh PIWIL2 (11732686_x_at) / RFU ORM1 (11744905_x_at) / Fold change /veh ORM1 (11744905_x_at) / RFU CCDC152 (11743942_at) / Fold change /veh CCDC152 (11743942_at) / RFU ECM1 (11717891_a_at) / Fold change /veh ECM1 (11717891_a_at) / RFU IL23R (11748794_a_at) / Fold change /veh IL23R (11748794_a_at) / RFU TNFAIP8L3 (11732012_x_at) / Fold change /veh TNFAIP8L3 (11732012_x_at) / RFU MBOAT4 (11741988_at) / Fold change /veh MBOAT4 (11741988_at) / RFU 11764193_at / Fold change /veh 11764193_at / RFU TMEM53 (11763286_at) / Fold change /veh TMEM53 (11763286_at) / RFU MAGEB2 (11727129_at) / Fold change /veh MAGEB2 (11727129_at) / RFU TMEM200A (11744735_a_at) / Fold change /veh TMEM200A (11744735_a_at) / RFU CCDC152 (11751479_a_at) / Fold change /veh CCDC152 (11751479_a_at) / RFU FAM211A (11726209_a_at) / Fold change /veh FAM211A (11726209_a_at) / RFU RGS16 (11746705_a_at) / Fold change /veh RGS16 (11746705_a_at) / RFU VCAN (11755009_s_at) / Fold change /veh VCAN (11755009_s_at) / RFU RHOB (11743442_s_at) / Fold change /veh RHOB (11743442_s_at) / RFU RGS16 (11720943_a_at) / Fold change /veh RGS16 (11720943_a_at) / RFU RGS16 (11720944_at) / Fold change /veh RGS16 (11720944_at) / RFU, VPS4B / Fold change vs veh, VPS4B / RFU, CREB1 / Fold change vs veh, CREB1 / RFU, DNAJC13 / Fold change vs veh, DNAJC13 / RFU, GNAQ / Fold change vs veh, GNAQ / RFU, CDK5R1 / Fold change vs veh, CDK5R1 / RFU, ZRANB3 / Fold change vs veh, ZRANB3 / RFU, CUL4A / Fold change vs veh, CUL4A / RFU, CCNY / Fold change vs veh, CCNY / RFU, UFL1 / Fold change vs veh, UFL1 / RFU, COG3 / Fold change vs veh, COG3 / RFU, DIAPH2 / Fold change vs veh, DIAPH2 / RFU, SKA2 / Fold change vs veh, SKA2 / RFU, AFF3 / Fold change vs veh, AFF3 / RFU, LMF1 / Fold change vs veh, LMF1 / RFU, IPO11 / Fold change vs veh, IPO11 / RFU, DFFB / Fold change vs veh, DFFB / RFU, FOXP1 / Fold change vs veh, FOXP1 / RFU, CARD8 / Fold change vs veh, CARD8 / RFU, STRN3 / Fold change vs veh, STRN3 / RFU, ADK / Fold change vs veh, ADK / RFU, RASSF2 / Fold change vs veh, RASSF2 / RFU, WIPF1 / Fold change vs veh, WIPF1 / RFU, LARP1B / Fold change vs veh, LARP1B / RFU, RASA1 / Fold change vs veh, RASA1 / RFU, RB1 / Fold change vs veh, RB1 / RFU, PPFIA1 / Fold change vs veh, PPFIA1 / RFU, MAT2A / Fold change vs veh, MAT2A / RFU, CCT5 / Fold change vs veh, CCT5 / RFU, WDR92 / Fold change vs veh, WDR92 / RFU, CUX1 / Fold change vs veh, CUX1 / RFU, TTC7A / Fold change vs veh, TTC7A / RFU, TMEM135 / Fold change vs veh, TMEM135 / RFU, DEPTOR / Fold change vs veh, DEPTOR / RFU, CPM / Fold change vs veh, CPM / RFU, DNAJB6 / Fold change vs veh, DNAJB6 / RFU, CACNA2D3 / Fold change vs veh, CACNA2D3 / RFU, DTX4 / Fold change vs veh, DTX4 / RFU, TFCP2 / Fold change vs veh, TFCP2 / RFU, GMCL1 /// GMCL1P1 / Fold change vs veh, GMCL1 /// GMCL1P1 / RFU, AEBP2 / Fold change vs veh, AEBP2 / RFU, SNHG1 /// SNORD22 /// SNORD25 /// SNORD26 /// SNORD27 /// SNORD28 /// SNORD29 /// SNORD31 / Fold change vs veh, SNHG1 /// SNORD22 /// SNORD25 /// SNORD26 /// SNORD27 /// SNORD28 /// SNORD29 /// SNORD31 / Fold change (Aza/veh), C12orf56 (ProbeSet 11735607_a_at) / Fold change (ACY-1035/veh), C12orf56 (ProbeSet 11735607_a_at) / Fold change (Aza/veh), FGFR1OP (ProbeSet 11751329_s_at) / Fold change (ACY-1035/veh), FGFR1OP (ProbeSet 11751329_s_at) / Fold change (Aza/veh), VPS36 (ProbeSet 11739960_a_at) / Fold change (ACY-1035/veh), VPS36 (ProbeSet 11739960_a_at) / RFU SYPL1 (11715823_x_at) / Fold change /veh SYPL1 (11715823_x_at) / RFU IGFBP7 (11715501_s_at) / Fold change /veh IGFBP7 (11715501_s_at) / RFU REEP3 (11722064_at) / Fold change /veh REEP3 (11722064_at) / RFU IGLL1 (11728026_x_at) / Fold change /veh IGLL1 (11728026_x_at): dose or concentration left out as unconfirmed
Settings: MV-4-11 cells, 48 hours

Structure (SMILES): Nc1ncn([C@@H]2O[C@H](CO)[C@@H](O)[C@H]2O)c(=O)n1 [azacitidine]
- Fold change /veh GSTM3 (11746129_a_at): 1.35
